In ChEMBL document CHEMBL1201862, “PubChem BioAssay data set” (2004):
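Assay format: 96-well plates, 48-hour exposure. GI50: concentration for 50% inhibition of growth.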 The source made the active and inactive calls. Cut-off read from the data, not from the text of the source: active = GI50 up to about 1.1 µM and inactive = higher.

Legend:
Assay in all cases: growth of human tumour cells (NCI), 48 h
A498 = system: A498
ACHN = system: ACHN
CAKI-1 = system: CAKI-1
HCC 2998 = system: HCC 2998
HL-60 = system: HL-60
HOP-92 = system: HOP-92
Hs-578T = system: Hs-578T
MCF7 = system: MCF7
MDA-MB-231 = system: MDA-MB-231
MOLT-4 = system: MOLT-4
NCI-H460 = system: NCI-H460
OVCAR-5 = system: OVCAR-5
RPMI-8226 = system: RPMI-8226
SK-OV-3 = system: SK-OV-3
SR = system: SR
SW-620 = system: SW-620
UACC-62 = system: UACC-62
UO-31 = system: UO-31
PC-3 = system: PC-3
SK-MEL-28 = system: SK-MEL-28

Measured: GI50

CCCCc1ccc(C#CC#Cc2ccc(CCCC)s2)s1
inactive: A498 > 100 µM | ACHN > 100 µM | CAKI-1 > 100 µM | HCC 2998 > 100 µM | HL-60 24.8 µM | HOP-92 > 100 µM | Hs-578T > 100 µM | MCF7 > 100 µM | MDA-MB-231 > 100 µM | MOLT-4 > 100 µM | NCI-H460 > 100 µM | OVCAR-5 > 100 µM | RPMI-8226 > 100 µM | SK-OV-3 > 100 µM | SR > 100 µM | SW-620 > 100 µM | UACC-62 > 100 µM | UO-31 > 100 µM

COc1c(O)cc(C(=O)O[C@@H]2Cc3c(O)cc(O)cc3O[C@@H]2c2cc(O)c(O)c(O)c2)cc1O
inactive: A498 94.6 µM | ACHN 30.6 µM | CAKI-1 > 100 µM | HCC 2998 97.1 µM | HL-60 19.7 µM | HOP-92 > 100 µM | Hs-578T > 100 µM | MCF7 20 µM | MOLT-4 24.2 µM | NCI-H460 24.5 µM | OVCAR-5 39.4 µM | PC-3 68.1 µM | RPMI-8226 24.3 µM | SK-MEL-28 > 100 µM | SK-OV-3 > 100 µM | SR 18.7 µM | SW-620 28.2 µM | UACC-62 25.8 µM | UO-31 23 µM

COC(=O)[C@@]12CSC[C@]1(C(=O)OC)N[C@@H](c1ccccc1O)C2
inactive: A498 > 100 µM | ACHN > 100 µM | CAKI-1 > 100 µM | HCC 2998 > 100 µM | HL-60 > 100 µM | HOP-92 > 100 µM | Hs-578T > 100 µM | MCF7 > 100 µM | MOLT-4 > 100 µM | NCI-H460 > 100 µM | OVCAR-5 > 100 µM | PC-3 > 100 µM | RPMI-8226 > 100 µM | SK-MEL-28 > 100 µM | SK-OV-3 > 100 µM | SR > 100 µM | SW-620 > 100 µM | UACC-62 > 100 µM | UO-31 > 100 µM

CC1OC(n2cnc3c(N)nc(Cl)nc32)C(C)(O)C1O (configuration not stated)
inactive: A498 > 25 µM | ACHN > 25 µM | CAKI-1 > 25 µM | HCC 2998 > 25 µM | HL-60 > 25 µM | HOP-92 > 25 µM | Hs-578T > 25 µM | MCF7 > 25 µM | MDA-MB-231 > 25 µM | MOLT-4 > 25 µM | OVCAR-5 > 25 µM | RPMI-8226 > 25 µM | SK-OV-3 > 25 µM | SR > 25 µM | SW-620 > 25 µM | UACC-62 > 25 µM | UO-31 16.7 µM

CC(C)Oc1cccc(N2C(NCCc3c[nH]c4ccccc34)=Nc3ccncc3S2(=O)=O)c1
inactive: A498 9.31 µM | ACHN 35.5 µM | CAKI-1 42.1 µM | HCC 2998 24.4 µM | HL-60 3.93 µM | HOP-92 8.45 µM | Hs-578T 3.9 µM | MCF7 4.73 µM | MOLT-4 3.94 µM | NCI-H460 6.53 µM | OVCAR-5 > 100 µM | PC-3 6.4 µM | RPMI-8226 5.51 µM | SK-MEL-28 8.43 µM | SK-OV-3 > 100 µM | SR 3.26 µM | SW-620 8.36 µM | UACC-62 31 µM | UO-31 81.8 µM

COc1ccccc1-c1cc(=O)c2ccc(OC)c(OC)c2o1
inactive: A498 37.8 µM | ACHN 39.4 µM | CAKI-1 > 100 µM | HCC 2998 52.8 µM | HL-60 27.5 µM | HOP-92 28.2 µM | Hs-578T 41.7 µM | MCF7 45.9 µM | MDA-MB-231 > 100 µM | MOLT-4 60.4 µM | NCI-H460 49.5 µM | OVCAR-5 > 100 µM | RPMI-8226 47.6 µM | SK-MEL-28 > 100 µM | SK-OV-3 66.7 µM | SR > 100 µM | SW-620 96.2 µM | UACC-62 51.5 µM | UO-31 30.2 µM

COC1(CCO)CC=CCC1(CCO)OC (configuration not stated)
inactive: ACHN > 100 µM | CAKI-1 > 100 µM | HL-60 > 100 µM | HOP-92 > 100 µM | Hs-578T > 100 µM | MCF7 > 100 µM | MOLT-4 > 100 µM | NCI-H460 > 100 µM | OVCAR-5 > 100 µM | PC-3 > 100 µM | RPMI-8226 > 100 µM | SK-MEL-28 > 100 µM | SK-OV-3 > 100 µM | SW-620 > 100 µM | UACC-62 > 100 µM | UO-31 > 100 µM

O=[N+]([O-])c1cc(/N=N/c2c(O)ccc3cc(S(=O)(=O)O)ccc23)c(O)c([N+](=O)[O-])c1
inactive: ACHN > 100 µM | CAKI-1 > 100 µM | HL-60 11.1 µM | HOP-92 > 100 µM | Hs-578T > 100 µM | MDA-MB-231 > 100 µM | MOLT-4 31.5 µM | OVCAR-5 > 100 µM | PC-3 90.6 µM | RPMI-8226 > 100 µM | SK-MEL-28 > 100 µM | SK-OV-3 > 100 µM | SW-620 93.1 µM | UACC-62 > 100 µM | UO-31 39.4 µM
